Active and inactive are the calls of the source. No cut-off for these calls is given here.
What was measured:
[1] = Selectivity index, ratio of antiinflammatory activity in mouse BMDM cells assessed as inhibition of TNF-alpha production to antiinflammatory activity in mouse BMDM cells assessed as inhibition of IL1-beta production; format: functional
[2] = Antiinflammatory activity in mouse BMDM cells assessed as inhibition of TNF-alpha production relative to control; format: functional
[3] = Antiinflammatory activity in mouse BMDM cells assessed as inhibition of IL1-beta production relative to control; format: functional
[4] = Antiinflammatory activity in mouse BMDM cells assessed as inhibition of IL1-beta production; format: functional, cell-based
[5] = Selectivity index, ratio of IC50 for antiinflammatory activity in mouse BMDM cells assessed as inhibition of TNF-alpha production to IC50 for antiinflammatory activity in mouse BMDM cells assessed as inhibition of IL1-beta production; format: functional
[6] = Antiinflammatory activity in mouse BMDM cells assessed as inhibition of TNF-alpha production; format: functional, cell-based
[7] = molecular target: NACHT, LRR and PYD domains-containing protein 3 (Mus musculus) (UniProt Q8R4B8); experiment: Inhibition of NLRP3 inflammasome activation in LPS-primed immortalized mouse BMDM cells assessed as effect on ATP-induced NLRP3 level in cell lysate at 5 to 20 uM by western blot analysis; format: subcellular; settings: dose 5-20 µM
[8] = molecular target: NACHT, LRR and PYD domains-containing protein 3 (Mus musculus) (UniProt Q8R4B8); experiment: Inhibition of NLRP3 inflammasome activation in LPS-primed immortalized mouse BMDM cells assessed as reduction in ATP-induced mature IL-1beta expression in supernatant at 5 to 20 uM by western blot analysis; format: cell-based; settings: dose 5-20 µM
[9] = molecular target: NACHT, LRR and PYD domains-containing protein 3 (Mus musculus) (UniProt Q8R4B8); experiment: Inhibition of NLRP3 inflammasome activation in LPS-primed immortalized mouse BMDM cells assessed as reduction in ATP-induced cleaved caspase-1 expression in supernatant at 5 to 20 uM by western blot analysis; format: cell-based; settings: dose 5-20 µM
[10] = molecular target: NACHT, LRR and PYD domains-containing protein 3 (Mus musculus) (UniProt Q8R4B8); experiment: Inhibition of NLRP3 inflammasome activation in LPS-primed immortalized mouse BMDM cells assessed as effect on ATP-induced pro-IL-1beta level in cell lysate at 5 to 20 uM by western blot analysis; format: subcellular; settings: dose 5-20 µM
[11] = molecular target: NACHT, LRR and PYD domains-containing protein 3 (Mus musculus) (UniProt Q8R4B8); experiment: Inhibition of NLRP3 inflammasome activation in LPS-primed mouse BMDM cells assessed as inhibition of LPS/ATP induced IL-1beta release by ELISA; format: cell-based
[12] = molecular target: NACHT, LRR and PYD domains-containing protein 3 (Mus musculus) (UniProt Q8R4B8); experiment: Inhibition of NLRP3 inflammasome activation in LPS-primed immortalized mouse BMDM cells assessed as inhibition of LPS/ATP induced IL-1beta release by ELISA; format: cell-based

NACHT, LRR and PYD domains-containing protein 3 (Mus musculus), sequence (Q8R4B8 whole entry, the tested form may be a part): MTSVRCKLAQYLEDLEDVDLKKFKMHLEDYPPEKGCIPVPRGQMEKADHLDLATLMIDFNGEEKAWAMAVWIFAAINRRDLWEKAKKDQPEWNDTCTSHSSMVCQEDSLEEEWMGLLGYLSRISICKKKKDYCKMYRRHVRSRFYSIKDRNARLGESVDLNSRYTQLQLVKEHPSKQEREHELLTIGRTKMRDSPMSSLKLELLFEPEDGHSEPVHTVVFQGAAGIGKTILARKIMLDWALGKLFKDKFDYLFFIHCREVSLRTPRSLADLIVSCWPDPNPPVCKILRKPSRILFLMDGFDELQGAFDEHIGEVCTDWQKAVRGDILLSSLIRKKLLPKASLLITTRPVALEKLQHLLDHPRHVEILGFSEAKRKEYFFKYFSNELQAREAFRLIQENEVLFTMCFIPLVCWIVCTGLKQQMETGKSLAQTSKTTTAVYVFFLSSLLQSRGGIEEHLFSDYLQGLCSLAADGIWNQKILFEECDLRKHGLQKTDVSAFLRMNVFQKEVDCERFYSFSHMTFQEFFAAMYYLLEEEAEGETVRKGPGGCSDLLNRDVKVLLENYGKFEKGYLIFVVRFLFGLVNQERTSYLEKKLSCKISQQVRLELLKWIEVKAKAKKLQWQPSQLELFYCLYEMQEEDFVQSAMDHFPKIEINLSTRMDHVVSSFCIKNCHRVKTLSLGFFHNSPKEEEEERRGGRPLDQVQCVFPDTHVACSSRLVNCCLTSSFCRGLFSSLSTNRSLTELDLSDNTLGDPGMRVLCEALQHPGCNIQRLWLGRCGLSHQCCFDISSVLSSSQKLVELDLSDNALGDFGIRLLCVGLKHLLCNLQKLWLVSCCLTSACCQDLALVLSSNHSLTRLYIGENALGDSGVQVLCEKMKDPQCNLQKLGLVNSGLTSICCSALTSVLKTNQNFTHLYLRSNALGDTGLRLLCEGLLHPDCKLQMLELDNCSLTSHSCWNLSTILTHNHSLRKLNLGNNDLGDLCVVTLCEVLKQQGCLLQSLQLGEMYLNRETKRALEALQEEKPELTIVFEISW

Row | SMILES | Selectivity Index [1] | inhibition (INH) [2] [%] | inhibition (INH) [3] [%] | also measured
1 | Nc1c(C(=O)N2CCCC2)nnn1Cc1cc(Cl)c(C(=O)c2ccc(Cl)cc2)c(Cl)c1 | 0.65 | 51.44 | 33.52 | –
2 | CCCC(=O)Nc1c(C(N)=O)nnn1Cc1cc(Cl)c(C(=O)c2ccc(Cl)cc2)c(Cl)c1 | 1.56 | 47.9 | 74.89 | IC50 [4]: 11.9 µM; Ratio IC50 [5]: 2.25; IC50 [6]: 26.8 µM
3 | CC(=O)c1nnn(Cc2cc(Cl)c(C(=O)c3ccc(Cl)cc3)c(Cl)c2)c1N | 0.8 | 49.4 | 39.49 | –
4 | Nc1c(C(=O)NCCOCCO)nnn1Cc1cc(Cl)c(C(=O)c2ccc(Cl)cc2)c(Cl)c1 | 1.12 | 5.3 | 62 | –
5 | NC(=O)c1nnn(Cc2cc(Cl)c(C(=O)c3ccc(Cl)cc3)c(Cl)c2)c1NC(=O)c1ccco1 | 2.65 | 21.44 | 56.91 | –
6 | CC(C)C(=O)Nc1c(C(N)=O)nnn1Cc1cc(Cl)c(C(=O)c2ccc(Cl)cc2)c(Cl)c1 | 3.88 | 7.91 | 30.69 | –
7 | NC(=O)c1nnn(Cc2ccc3ccccc3c2)c1N | – | 2.5 | -26.65 | –
8 | NC(=O)c1nnn(Cc2cc(Cl)c(C(=O)c3ccc(Cl)cc3)c(Cl)c2)c1N [CARBOXYAMIDOTRIAZOLE] | 0.82 | 87.54 | 71.94 | –
9 | Nc1c(C(=O)N2CCCCC2)nnn1Cc1cc(Cl)c(C(=O)c2ccc(Cl)cc2)c(Cl)c1 | 0.51 | 52.43 | 27.12 | –
10 | CN(C)C(=O)c1nnn(Cc2cc(Cl)c(C(=O)c3ccc(Cl)cc3)c(Cl)c2)c1N | 0.75 | 57.9 | 43.42 | –
11 | COC(=O)c1nnn(Cc2cc(Cl)c(C(=O)c3ccc(Cl)cc3)c(Cl)c2)c1N | 2.72 | -6.83 | 18.59 | –
12 | NC(=O)c1nnn(Cc2cc(Cl)c(C(=O)c3ccc(Cl)cc3)c(Cl)c2)c1NC(=O)C1CC1 | 0.78 | 73.51 | 57.13 | –
13 | NC(=O)c1nnn(Cc2cc(Cl)c(C(=O)c3ccc(Cl)cc3)c(Cl)c2)c1NC(=O)CCBr | 1.07 | 81.52 | 87.06 | IC50 [4]: 4.97 µM; Ratio IC50 [5]: 1.96; IC50 [6]: 9.77 µM
14 | Nc1c(C(=O)NCCO)nnn1Cc1cc(Cl)c(C(=O)c2ccc(Cl)cc2)c(Cl)c1 | 4.85 | 15.01 | 72.28 | –
15 | CN1CCN(C(=O)c2nnn(Cc3cc(Cl)c(C(=O)c4ccc(Cl)cc4)c(Cl)c3)c2N)CC1 | 0.38 | 97 | 36.62 | –
16 | CC(C)(C)C(=O)Nc1c(C(N)=O)nnn1Cc1cc(Cl)c(C(=O)c2ccc(Cl)cc2)c(Cl)c1 | 0.74 | 92.89 | 68.75 | –
17 | CCC(CC)C(=O)Nc1c(C(N)=O)nnn1Cc1cc(Cl)c(C(=O)c2ccc(Cl)cc2)c(Cl)c1 | 13.43 | 5.73 | 77.01 | IC50 [4]: 8.08 µM; Ratio IC50 [5]: >12.37; IC50 [6]: > 100 µM
18 | CCNC(=O)c1nnn(Cc2cc(Cl)c(C(=O)c3ccc(Cl)cc3)c(Cl)c2)c1N | 0.71 | 75.89 | 53.9 | –
19 | CCNc1c(C(N)=O)nnn1Cc1cc(Cl)c(C(=O)c2ccc(Cl)cc2)c(Cl)c1 | 1 | 57.8 | 57.89 | –

Row | SMILES | Selectivity Index [1] | inhibition (INH) [2] [%] | inhibition (INH) [3] [%] | also measured
20 | CCC(=O)Nc1c(C(N)=O)nnn1Cc1cc(Cl)c(C(=O)c2ccc(Cl)cc2)c(Cl)c1 | 3.33 | 14.25 | 47.39 | –
21 | NC(=O)c1nnn(Cc2ccc(C(=O)c3ccccc3)cc2)c1N | – | -16.37 | 1.36 | –
22 | Nc1c(C(=O)NCc2ccccc2)nnn1Cc1cc(Cl)c(C(=O)c2ccc(Cl)cc2)c(Cl)c1 | 2.8 | 7.59 | 21.22 | –
23 | CNC(=O)c1nnn(Cc2cc(Cl)c(C(=O)c3ccc(Cl)cc3)c(Cl)c2)c1N | 1.26 | 46.35 | 58.34 | –
24 | NC(=O)c1nnn(Cc2ccccc2)c1N | – | -12.61 | -6.29 | –
25 | CC(C)C(=O)N(C(=O)C(C)C)c1c(C(N)=O)nnn1Cc1cc(Cl)c(C(=O)c2ccc(Cl)cc2)c(Cl)c1 | – | 20.24 | -22.3 | –
26 | CNc1c(C(N)=O)nnn1Cc1cc(Cl)c(C(=O)c2ccc(Cl)cc2)c(Cl)c1 | 3.71 | 15.53 | 57.66 | inhibition [7]: inactive; inhibition [8]: Active; IC50 [4]: 5.49 µM; inhibition [9]: Active; inhibition [10]: inactive; Ratio IC50 [5]: >18.22; inhibition [11]: Dose-Dependent Effect; inhibition [12]: Dose-Dependent Effect; IC50 [6]: > 100 µM
27 | CN(C)c1c(C(N)=O)nnn1Cc1cc(Cl)c(C(=O)c2ccc(Cl)cc2)c(Cl)c1 | 0.87 | 45.89 | 39.86 | –
28 | N#Cc1nnn(Cc2cc(Cl)c(C(=O)c3ccc(Cl)cc3)c(Cl)c2)c1N | 0.78 | 82.32 | 64.01 | –
29 | CCC(CC)C(=O)N(C(=O)C(CC)CC)c1c(C(N)=O)nnn1Cc1cc(Cl)c(C(=O)c2ccc(Cl)cc2)c(Cl)c1 | – | 12.68 | -22.74 | –
30 | NC(=O)c1cn(Cc2cc(Cl)c(C(=O)c3ccc(Cl)cc3)c(Cl)c2)nn1 | 1.68 | 30.18 | 50.67 | –
31 | NC(=O)c1nnn(Cc2cc(Cl)c(C(=O)c3ccc(Cl)cc3)c(Cl)c2)c1N(C(=O)C1CC1)C(=O)C1CC1 | – | 48.7 | -36.41 | –
32 | CC(C)(C)C(=O)N(C(=O)C(C)(C)C)c1c(C(N)=O)nnn1Cc1cc(Cl)c(C(=O)c2ccc(Cl)cc2)c(Cl)c1 | – | 17.92 | -8.41 | –
33 | CCC(=O)N(C(=O)CC)c1c(C(N)=O)nnn1Cc1cc(Cl)c(C(=O)c2ccc(Cl)cc2)c(Cl)c1 | – | 11.95 | -23.37 | –
34 | NC(=O)c1nnn(Cc2cc(Cl)c(C(=O)c3ccc(Cl)cc3)c(Cl)c2)c1NC(=O)c1ccccc1 | 0.53 | 86.58 | 46.29 | –
35 | NC(=O)c1nnn(Cc2cc(Cl)c(C(=O)c3ccc(Cl)cc3)c(Cl)c2)c1NC(=O)CCCBr | 19.51 | -2.72 | 53.09 | –
36 | Nc1c(C(=O)NCCOCCOCCO)nnn1Cc1cc(Cl)c(C(=O)c2ccc(Cl)cc2)c(Cl)c1 | 5.3 | 8.04 | 42.65 | –
37 | NC(=O)c1nnn(Cc2ccc(-c3ccccc3)cc2)c1N | – | 0.39 | -18.17 | –
